Measurements published in ChEMBL document CHEMBL4004838, “Design and synthesis of novel phenyl -1, 4-beta-carboline-hybrid molecules as potential anticancer agents” (Eur J Med Chem, 2017).

Test system: TK-10
Assay: Growth inhibition of human TK10 cells assessed as cell growth at 10^-5 M incubated for 48 hrs by sulforhodamine B assay relative to control
Format: functional
Settings: TK-10, 48 h, read-out: Activity

| Structure (SMILES) | growth at 10 µM |
| --- | --- |
| c1ccc2[nH]c(-c3ccc(C4NCCc5c4[nH]c4ccccc54)cc3)nc2c1 (stereo not drawn) | 94.6% |

Test system: K562
Assay: Growth inhibition of human K562 cells assessed as cell growth at 10^-5 M incubated for 48 hrs by sulforhodamine B assay relative to control
Format: functional
Settings: K562, 48 h, read-out: Activity

| Structure (SMILES) | growth at 10 µM |
| --- | --- |
| c1ccc2[nH]c(-c3ccc(C4NCCc5c4[nH]c4ccccc54)cc3)nc2c1 (stereo not drawn) | 88.2% |

Test system: U-251
Assay: Growth inhibition of human U251 cells assessed as cell growth at 10^-5 M incubated for 48 hrs by sulforhodamine B assay relative to control
Format: functional
Settings: U-251, 48 h, read-out: Activity

| Structure (SMILES) | growth at 10 µM |
| --- | --- |
| c1ccc2[nH]c(-c3ccc(C4NCCc5c4[nH]c4ccccc54)cc3)nc2c1 (stereo not drawn) | 93.4% |

Test system: COLO 205
Assay: Growth inhibition of human COLO205 cells assessed as cell growth at 10^-5 M incubated for 48 hrs by sulforhodamine B assay relative to control
Format: functional
Settings: COLO 205, 48 h, read-out: Activity

| Structure (SMILES) | growth at 10 µM |
| --- | --- |
| c1ccc2[nH]c(-c3ccc(C4NCCc5c4[nH]c4ccccc54)cc3)nc2c1 (stereo not drawn) | 98.3% |

Test system: BT-549
Assay: Growth inhibition of human BT549 cells assessed as cell growth at 10^-5 M incubated for 48 hrs by sulforhodamine B assay relative to control
Format: functional
Settings: BT-549, 48 h, read-out: Activity

| Structure (SMILES) | growth at 10 µM |
| --- | --- |
| c1ccc2[nH]c(-c3ccc(C4NCCc5c4[nH]c4ccccc54)cc3)nc2c1 (stereo not drawn) | 93.2% |

Test system: OVCAR-4
Assay: Growth inhibition of human OVCAR4 cells assessed as cell growth at 10^-5 M incubated for 48 hrs by sulforhodamine B assay relative to control
Format: functional
Settings: OVCAR-4, 48 h, read-out: Activity

| Structure (SMILES) | growth at 10 µM |
| --- | --- |
| c1ccc2[nH]c(-c3ccc(C4NCCc5c4[nH]c4ccccc54)cc3)nc2c1 (stereo not drawn) | 97.9% |

Test system: MDA-MB-468
Assay: Growth inhibition of human MDA-MB-468 cells assessed as cell growth at 10^-5 M incubated for 48 hrs by sulforhodamine B assay relative to control
Format: functional
Settings: MDA-MB-468, 48 h, read-out: Activity

| Structure (SMILES) | growth at 10 µM |
| --- | --- |
| c1ccc2[nH]c(-c3ccc(C4NCCc5c4[nH]c4ccccc54)cc3)nc2c1 (stereo not drawn) | 94.7% |

Test system: UO-31
Assay: Growth inhibition of human UO31 cells assessed as cell growth at 10^-5 M incubated for 48 hrs by sulforhodamine B assay relative to control
Format: functional
Settings: UO-31, 48 h, read-out: Activity

| Structure (SMILES) | growth at 10 µM |
| --- | --- |
| c1ccc2[nH]c(-c3ccc(C4NCCc5c4[nH]c4ccccc54)cc3)nc2c1 (stereo not drawn) | 73.5% |

Test system: SR
Assay: Growth inhibition of human SR cells assessed as cell growth at 10^-5 M incubated for 48 hrs by sulforhodamine B assay relative to control
Format: functional
Settings: read-out: Activity

| Structure (SMILES) | growth at 10 µM |
| --- | --- |
| c1ccc2[nH]c(-c3ccc(C4NCCc5c4[nH]c4ccccc54)cc3)nc2c1 (stereo not drawn) | 119% |

Test system: Malme-3M
Assay: Growth inhibition of human MALME-3M cells assessed as cell growth at 10^-5 M incubated for 48 hrs by sulforhodamine B assay relative to control
Format: functional
Settings: read-out: Activity

| Structure (SMILES) | growth at 10 µM |
| --- | --- |
| c1ccc2[nH]c(-c3ccc(C4NCCc5c4[nH]c4ccccc54)cc3)nc2c1 (stereo not drawn) | 90% |

Test system: UACC-62
Assay: Growth inhibition of human UACC62 cells assessed as cell growth at 10^-5 M incubated for 48 hrs by sulforhodamine B assay relative to control
Format: functional
Settings: UACC-62, 48 h, read-out: Activity

| Structure (SMILES) | growth at 10 µM |
| --- | --- |
| c1ccc2[nH]c(-c3ccc(C4NCCc5c4[nH]c4ccccc54)cc3)nc2c1 (stereo not drawn) | 86.3% |

Test system: HCC 2998
Assay: Growth inhibition of human HCC2998 cells assessed as cell growth at 10^-5 M incubated for 48 hrs by sulforhodamine B assay relative to control
Format: functional
Settings: HCC 2998, 48 h, read-out: Activity

| Structure (SMILES) | growth at 10 µM |
| --- | --- |
| c1ccc2[nH]c(-c3ccc(C4NCCc5c4[nH]c4ccccc54)cc3)nc2c1 (stereo not drawn) | 107% |

Test system: SNB-75
Assay: Growth inhibition of human SNB75 cells assessed as cell growth at 10^-5 M incubated for 48 hrs by sulforhodamine B assay relative to control
Format: functional
Settings: SNB-75, 48 h, read-out: Activity

| Structure (SMILES) | growth at 10 µM |
| --- | --- |
| c1ccc2[nH]c(-c3ccc(C4NCCc5c4[nH]c4ccccc54)cc3)nc2c1 (stereo not drawn) | 89% |

Test system: SK-MEL-2
Assay: Growth inhibition of human SK-MEL-2 cells assessed as cell growth at 10^-5 M incubated for 48 hrs by sulforhodamine B assay relative to control
Format: functional
Settings: SK-MEL-2, 48 h, read-out: Activity

| Structure (SMILES) | growth at 10 µM |
| --- | --- |
| c1ccc2[nH]c(-c3ccc(C4NCCc5c4[nH]c4ccccc54)cc3)nc2c1 (stereo not drawn) | 96.8% |

Test system: HCT-15
Assay: Growth inhibition of human HCT15 cells assessed as cell growth at 10^-5 M incubated for 48 hrs by sulforhodamine B assay relative to control
Format: functional
Settings: HCT-15, 48 h, read-out: Activity

| Structure (SMILES) | growth at 10 µM |
| --- | --- |
| c1ccc2[nH]c(-c3ccc(C4NCCc5c4[nH]c4ccccc54)cc3)nc2c1 (stereo not drawn) | 107% |

Test system: HOP-92
Assay: Growth inhibition of human HOP92 cells assessed as cell growth at 10^-5 M incubated for 48 hrs by sulforhodamine B assay relative to control
Format: functional
Settings: HOP-92, 48 h, read-out: Activity

| Structure (SMILES) | growth at 10 µM |
| --- | --- |
| c1ccc2[nH]c(-c3ccc(C4NCCc5c4[nH]c4ccccc54)cc3)nc2c1 (stereo not drawn) | 82.2% |

Test system: 786-0
Assay: Growth inhibition of human 786-0 cells assessed as cell growth at 10^-5 M incubated for 48 hrs by sulforhodamine B assay relative to control
Format: functional
Settings: 786-0, 48 h, read-out: Activity

| Structure (SMILES) | growth at 10 µM |
| --- | --- |
| c1ccc2[nH]c(-c3ccc(C4NCCc5c4[nH]c4ccccc54)cc3)nc2c1 (stereo not drawn) | 95.9% |

Test system: T47D
Assay: Growth inhibition of human T47D cells assessed as cell growth at 10^-5 M incubated for 48 hrs by sulforhodamine B assay relative to control
Format: functional
Settings: read-out: Activity

| Structure (SMILES) | growth at 10 µM |
| --- | --- |
| c1ccc2[nH]c(-c3ccc(C4NCCc5c4[nH]c4ccccc54)cc3)nc2c1 (stereo not drawn) | 90.8% |

Test system: ACHN
Assay: Growth inhibition of human ACHN cells assessed as cell growth at 10^-5 M incubated for 48 hrs by sulforhodamine B assay relative to control
Format: functional
Settings: read-out: Activity

| Structure (SMILES) | growth at 10 µM |
| --- | --- |
| c1ccc2[nH]c(-c3ccc(C4NCCc5c4[nH]c4ccccc54)cc3)nc2c1 (stereo not drawn) | 102% |

Test system: DU-145
Assay: Growth inhibition of human DU145 cells assessed as cell growth at 10^-5 M incubated for 48 hrs by sulforhodamine B assay relative to control
Format: functional
Settings: DU-145, 48 h, read-out: Activity

| Structure (SMILES) | growth at 10 µM |
| --- | --- |
| c1ccc2[nH]c(-c3ccc(C4NCCc5c4[nH]c4ccccc54)cc3)nc2c1 (stereo not drawn) | 113% |

Test system: NCI/ADR-RES
Assay: Growth inhibition of human NCI-ADR-RES cells assessed as cell growth at 10^-5 M incubated for 48 hrs by sulforhodamine B assay relative to control
Format: functional
Settings: read-out: Activity

| Structure (SMILES) | growth at 10 µM |
| --- | --- |
| c1ccc2[nH]c(-c3ccc(C4NCCc5c4[nH]c4ccccc54)cc3)nc2c1 (stereo not drawn) | 109% |

Test system: MOLT-4
Assay: Growth inhibition of human MOLT4 cells assessed as cell growth at 10^-5 M incubated for 48 hrs by sulforhodamine B assay relative to control
Format: functional
Settings: MOLT-4, 48 h, read-out: Activity

| Structure (SMILES) | growth at 10 µM |
| --- | --- |
| c1ccc2[nH]c(-c3ccc(C4NCCc5c4[nH]c4ccccc54)cc3)nc2c1 (stereo not drawn) | 107% |

Test system: CCRF-CEM
Assay: Growth inhibition of human CCRF-CEM cells assessed as cell growth at 10^-5 M incubated for 48 hrs by sulforhodamine B assay relative to control
Format: functional
Settings: read-out: Activity

| Structure (SMILES) | growth at 10 µM |
| --- | --- |
| c1ccc2[nH]c(-c3ccc(C4NCCc5c4[nH]c4ccccc54)cc3)nc2c1 (stereo not drawn) | 103% |

Test system: MDA-MB-435
Assay: Growth inhibition of human MDA-MB-435 cells assessed as cell growth at 10^-5 M incubated for 48 hrs by sulforhodamine B assay relative to control
Format: functional
Settings: MDA-MB-435, 48 h, read-out: Activity

| Structure (SMILES) | growth at 10 µM |
| --- | --- |
| c1ccc2[nH]c(-c3ccc(C4NCCc5c4[nH]c4ccccc54)cc3)nc2c1 (stereo not drawn) | 101% |

Test system: HT-29
Assay: Growth inhibition of human HT-29 cells assessed as cell growth at 10^-5 M incubated for 48 hrs by sulforhodamine B assay relative to control
Format: functional
Settings: HT-29, 48 h, read-out: Activity

| Structure (SMILES) | growth at 10 µM |
| --- | --- |
| c1ccc2[nH]c(-c3ccc(C4NCCc5c4[nH]c4ccccc54)cc3)nc2c1 (stereo not drawn) | 94.2% |

Test system: OVCAR-5
Assay: Growth inhibition of human OVCAR5 cells assessed as cell growth at 10^-5 M incubated for 48 hrs by sulforhodamine B assay relative to control
Format: functional
Settings: OVCAR-5, 48 h, read-out: Activity

| Structure (SMILES) | growth at 10 µM |
| --- | --- |
| c1ccc2[nH]c(-c3ccc(C4NCCc5c4[nH]c4ccccc54)cc3)nc2c1 (stereo not drawn) | 94.2% |

Test system: NCI-H322M
Assay: Growth inhibition of human NCI-H322M cells assessed as cell growth at 10^-5 M incubated for 48 hrs by sulforhodamine B assay relative to control
Format: functional
Settings: read-out: Activity

| Structure (SMILES) | growth at 10 µM |
| --- | --- |
| c1ccc2[nH]c(-c3ccc(C4NCCc5c4[nH]c4ccccc54)cc3)nc2c1 (stereo not drawn) | 92.8% |

Test system: LOX IMVI
Assay: Growth inhibition of human LOXIMVI cells assessed as cell growth at 10^-5 M incubated for 48 hrs by sulforhodamine B assay relative to control
Format: functional
Settings: read-out: Activity

| Structure (SMILES) | growth at 10 µM |
| --- | --- |
| c1ccc2[nH]c(-c3ccc(C4NCCc5c4[nH]c4ccccc54)cc3)nc2c1 (stereo not drawn) | 98% |

Test system: OVCAR-3
Assay: Growth inhibition of human OVCAR3 cells assessed as cell growth at 10^-5 M incubated for 48 hrs by sulforhodamine B assay relative to control
Format: functional
Settings: OVCAR-3, 48 h, read-out: Activity

| Structure (SMILES) | growth at 10 µM |
| --- | --- |
| c1ccc2[nH]c(-c3ccc(C4NCCc5c4[nH]c4ccccc54)cc3)nc2c1 (stereo not drawn) | 107% |

Test system: HL-60(TB)
Assay: Growth inhibition of human HL-60(TB) cells assessed as cell growth at 10^-5 M incubated for 48 hrs by sulforhodamine B assay relative to control
Format: functional
Settings: HL-60, 48 h, read-out: Activity

| Structure (SMILES) | growth at 10 µM |
| --- | --- |
| c1ccc2[nH]c(-c3ccc(C4NCCc5c4[nH]c4ccccc54)cc3)nc2c1 (stereo not drawn) | 97.9% |

Test system: NCI-H226
Assay: Growth inhibition of human NCI-H226 cells assessed as cell growth at 10^-5 M incubated for 48 hrs by sulforhodamine B assay relative to control
Format: functional
Settings: NCI-H226, 48 h, read-out: Activity

| Structure (SMILES) | growth at 10 µM |
| --- | --- |
| c1ccc2[nH]c(-c3ccc(C4NCCc5c4[nH]c4ccccc54)cc3)nc2c1 (stereo not drawn) | 93.5% |

Test system: NCI-H23
Assay: Growth inhibition of human NCI-H23 cells assessed as cell growth at 10^-5 M incubated for 48 hrs by sulforhodamine B assay relative to control
Format: functional
Settings: NCI-H23, 48 h, read-out: Activity

| Structure (SMILES) | growth at 10 µM |
| --- | --- |
| c1ccc2[nH]c(-c3ccc(C4NCCc5c4[nH]c4ccccc54)cc3)nc2c1 (stereo not drawn) | 102% |

Test system: Hs-578T
Assay: Growth inhibition of human Hs 578T cells assessed as cell growth at 10^-5 M incubated for 48 hrs by sulforhodamine B assay relative to control
Format: functional
Settings: read-out: Activity

| Structure (SMILES) | growth at 10 µM |
| --- | --- |
| c1ccc2[nH]c(-c3ccc(C4NCCc5c4[nH]c4ccccc54)cc3)nc2c1 (stereo not drawn) | 93.9% |
